From the NIST ThermoML archive (doi:10.1016/j.tca.2016.06.014)
Several values for one entry are separate records, joined by “and”; a condition that tells them apart may be missing. Equal entries are not always repeated. Numbers after ± are expanded uncertainties.

Legend:
[1] = Molar enthalpy of transition or fusion; details: DSC
[2] = for vapor or sublimation pressure: Transpiration method; for Triple point temperature: DSC; for Normal melting temperature: DTA

BrC12CC3CC(CC(C3)C1)C2 [1-bromotricyclo[3.3.1.1(3,7)]decane]
Details	Molar enthalpy of transition or fusion, [1] [kcal/mol]	Triple point temperature, [2] [K]
Crystal 1	1.15 ± 0.239	390.9 ± 1.2
Crystal 2	1.77 ± 0.239	311.6 ± 1.2

vapor or sublimation pressure [kPa], [2]
Details	298.2 K	303.2 K	313.2 K	317.3 K	320.2 K	323.2 K	325.7 K	328.2 K	333.1 K	337.1 K
Crystal 1	–	–	0.0166 ± 0.0011	0.02262 ± 0.0014	0.02932 ± 0.0019	0.03504 ± 0.0022	0.04244 ± 0.0027	0.04954 ± 0.0031	0.06913 ± 0.0043	0.08922 ± 0.0056
Crystal 2	0.00419 ± 0.00028	0.00677 ± 0.00043	–	–	–	–	–	–	–	–

ClC12CC3CC(CC(C3)C1)C2 [1-chlorotricyclo[3.3.1.1(3,7)]decane]
Crystal
Details	Molar enthalpy of transition or fusion [kcal/mol]	Normal melting temperature [°C]
[1]	1.24 ± 0.239	–
[2]	–	165.8 ± 1.1

[2], Crystal
Details	vapor or sublimation pressure
298.5 K	0.01172 ± 0.00075 kPa
301 K	0.01402 ± 0.00097 kPa
303.2 K	0.01766 ± 0.0011 kPa
303.4 K	0.01712 ± 0.001 kPa
306.3 K	0.02255 ± 0.0015 kPa
308.3 K	0.02567 ± 0.0016 kPa
308.4 K	0.02653 ± 0.0017 kPa
311.4 K	0.03389 ± 0.0022 kPa
313.3 K	0.0365 ± 0.0023 kPa
316.2 K	0.04719 ± 0.003 kPa
318.2 K	0.05137 ± 0.0033 kPa and 0.05598 ± 0.0036 kPa
323.2 K	0.07923 ± 0.005 kPa
323.3 K	0.0762 ± 0.0048 kPa
326.2 K	0.09623 ± 0.006 kPa
328.2 K	0.1033 ± 0.0064 kPa and 0.11 ± 0.0069 kPa
330.7 K	0.1198 ± 0.0075 kPa
333.2 K	0.1492 ± 0.0094 kPa
333.4 K	0.1437 ± 0.009 kPa

BrC1C2CC3CC(C2)CC1C3 (stereo unspecified) [2-bromoadamantane]
Crystal
Details	Molar enthalpy of transition or fusion [kcal/mol]	Normal melting temperature [°C]
[1]	1 ± 0.239	–
[2]	–	141.6 ± 1.1

[2], Crystal
Details	vapor or sublimation pressure [kPa]
298.5 K	0.00329 ± 0.00025
300.9 K	0.0039 ± 0.00028
303.4 K	0.00475 ± 0.00034
308.4 K	0.00703 ± 0.00045
313.3 K	0.01089 ± 0.0007
318.2 K	0.01506 ± 0.00096
323.2 K	0.02279 ± 0.0014
328.2 K	0.03107 ± 0.002
333.2 K	0.04422 ± 0.0028
338.2 K	0.06437 ± 0.004
340.1 K	0.07403 ± 0.0046
343.1 K	0.08635 ± 0.0053

ClC1C2CC3CC(C2)CC1C3 (stereo unspecified) [2-chlorotricyclo[3.3.1.1(3,7)]decane]
Crystal
Details	Molar enthalpy of transition or fusion [kcal/mol]	Normal melting temperature [°C]
[1]	1.51 ± 0.239	–
[2]	–	195.0 ± 1.1

[2], Crystal
Details	vapor or sublimation pressure
298.6 K	0.00623 ± 0.00047 kPa
301.6 K	0.0076 ± 0.00049 kPa
303.5 K	0.00901 ± 0.00054 kPa
308.4 K	0.01307 ± 0.00078 kPa
310.3 K	0.01568 ± 0.001 kPa
313.3 K	0.0191 ± 0.0012 kPa
313.5 K	0.01927 ± 0.0012 kPa and 0.01999 ± 0.0013 kPa and 0.01925 ± 0.0012 kPa
315.3 K	0.0223 ± 0.0015 kPa
318.2 K	0.02668 ± 0.0017 kPa
323.5 K	0.03885 ± 0.0025 kPa
328.2 K	0.05574 ± 0.0035 kPa
333.2 K	0.07877 ± 0.005 kPa
335.7 K	0.08972 ± 0.0055 kPa
338.2 K	0.106 ± 0.0067 kPa

BrC1CCCCC1 [bromocyclohexane]
[2], Liquid
Details	vapor or sublimation pressure [kPa]
277.5 K	0.105 ± 0.0066
280 K	0.1251 ± 0.0078
281.7 K	0.1422 ± 0.009
283.6 K	0.1639 ± 0.01
285.5 K	0.1872 ± 0.012
287.4 K	0.21 ± 0.013
288.8 K	0.2298 ± 0.015
289.3 K	0.2446 ± 0.015
291.3 K	0.2704 ± 0.017
293.2 K	0.3182 ± 0.02
295.3 K	0.3668 ± 0.023
297.3 K	0.4161 ± 0.026
